Some test systems named below: OVCAR-4 ovarian; LOX IMVI melanoma; RPMI-8226 leukemia; A498 renal; A549 NSCLC; ACHN renal; MOLT-4 leukemia; MDA-MB-231 breast; T-47D breast; HOP-92 NSCLC.
What all share (test): NCI tumour cell line growth inhibition, 48 h

SMILES strings stand for the structures.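 Values below derive from 48-hour exposures of cells grown in 96-well plates, with endpoints linearly interpolated between the two concentrations bracketing the appropriate inhibition level. Here, GI50 denotes the concentration required for 50% inhibition of growth. TGI: total growth inhibition.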

In the case of `COc1cccc(F)c1C(=O)c1cnc(NC2CCN(S(C)(=O)=O)CC2)nc1N`, the GI50 in the assay with OVCAR-4 ovarian is 5.61 µM; in the assay on LOX IMVI melanoma, 1.85 µM; in the assay with RPMI-8226 leukemia it was 1.96 µM; in the assay with A498 renal, 3.58 µM; with A549 NSCLC it was 3.15 µM; in the assay with ACHN renal, 2.16 µM. Further, the GI50 in the assay with MOLT-4 leukemia was 2.14 µM; in the assay on MDA-MB-231 breast it was 2.74 µM; in the assay with T-47D breast it was 5.22 µM; in the assay with HOP-92 NSCLC, 1.05 µM. In addition, the TGI in the assay with OVCAR-4 ovarian was greater than 25 µM; in the assay on LOX IMVI melanoma, greater than 25 µM; in the assay on RPMI-8226 leukemia, 11.3 µM; in the assay with A498 renal, 8.72 µM; in the assay on A549 NSCLC it was greater than 25 µM; with ACHN renal, greater than 25 µM. Moreover, the TGI in the assay with MOLT-4 leukemia is greater than 14.7 µM; in the assay on MDA-MB-231 breast it was greater than 22.1 µM; with T-47D breast, 24.4 µM; in the assay with HOP-92 NSCLC it was 9.15 µM.
Take `CC1(C)N=C(N)N=C(N)N1c1ccc(CCCCc2ccc(Cl)cc2S(=O)(=O)F)c(Cl)c1`: the GI50 in the assay with OVCAR-4 ovarian was 3.11 µM; in the assay with LOX IMVI melanoma, 0.242 µM; with RPMI-8226 leukemia, 0.562 µM; in the assay with A498 renal, 3.19 µM; in the assay with A549 NSCLC it was 0.388 µM; in the assay on ACHN renal, 2.62 µM. Moreover, the GI50 is 0.436 µM with MOLT-4 leukemia, 0.993 µM in the assay on MDA-MB-231 breast, 1.87 µM in the assay on T-47D breast and 1.32 µM with HOP-92 NSCLC. In addition, the TGI with OVCAR-4 ovarian was found to be 19.2 µM; in the assay with LOX IMVI melanoma, 13.4 µM; in the assay with RPMI-8226 leukemia, 13.2 µM; with A498 renal it was 18.9 µM; in the assay on A549 NSCLC, 13.9 µM; in the assay with ACHN renal, 17.6 µM. Moreover, the TGI in the assay with MOLT-4 leukemia was found to be 15.5 µM; in the assay on MDA-MB-231 breast it was 11.4 µM; in the assay on T-47D breast, 7.56 µM; with HOP-92 NSCLC it was 12.6 µM.
With `CC(=O)OC1COC(Oc2c(C)c3c4c(c2O)[C@@H](C)CC[C@@H]4[C@@H](C)C[C@H]3C=C(C)C)C(O)C1OC(C)=O` (some centres undefined), the GI50 was 21.6 µM with OVCAR-4 ovarian; 12 µM with LOX IMVI melanoma; 9.02 µM in the assay with RPMI-8226 leukemia; 23.5 µM in the assay on A498 renal; 16 µM in the assay with A549 NSCLC; 11 µM in the assay with ACHN renal. The GI50 was 6.64 µM in the assay with MOLT-4 leukemia, 16.2 µM in the assay with MDA-MB-231 breast, 20.1 µM in the assay with T-47D breast and 16.3 µM in the assay with HOP-92 NSCLC. The TGI with OVCAR-4 ovarian was 49.3 µM; in the assay with LOX IMVI melanoma it was 25.7 µM; with RPMI-8226 leukemia, 69.8 µM; in the assay with A498 renal, 45.7 µM; in the assay with A549 NSCLC, 32.8 µM; with ACHN renal, 22.9 µM. Besides, the TGI was 25.6 µM with MOLT-4 leukemia, 31.9 µM in the assay with MDA-MB-231 breast, 56.4 µM with T-47D breast and 35.1 µM with HOP-92 NSCLC.
Turning to `COc1ccccc1/C=N\N/C(N)=N\N=C\c1ccccc1OC`, the GI50 in the assay on OVCAR-4 ovarian is 1.05 µM; with LOX IMVI melanoma, 2.4 µM; with RPMI-8226 leukemia, 0.281 µM; with A498 renal, 0.372 µM; in the assay with A549 NSCLC it was 1.55 µM; in the assay on ACHN renal, 2.82 µM. For the same compound, the GI50 in the assay on MOLT-4 leukemia was 0.355 µM; in the assay on MDA-MB-231 breast, 2.58 µM; in the assay on T-47D breast, 0.457 µM; in the assay on HOP-92 NSCLC, 0.578 µM. Further, the TGI in the assay with OVCAR-4 ovarian is greater than 100 µM; in the assay on LOX IMVI melanoma, greater than 39.5 µM; in the assay with RPMI-8226 leukemia, 0.806 µM; in the assay on A498 renal, 19.4 µM; in the assay with A549 NSCLC, greater than 100 µM; with ACHN renal it was greater than 53.1 µM. In addition, the TGI with MOLT-4 leukemia was 3.9 µM; with MDA-MB-231 breast it was greater than 60.3 µM; with T-47D breast it was 7.36 µM; in the assay on HOP-92 NSCLC, 31.6 µM.
Take `COc1cc(C(=O)N2CCN(C=O)C2=S)cc(OC)c1OC`: the GI50 in the assay on OVCAR-4 ovarian is 24.1 µM; with LOX IMVI melanoma, 16.4 µM; in the assay with A498 renal, 20.5 µM; in the assay with A549 NSCLC, 33.2 µM; in the assay on ACHN renal, 20.1 µM; in the assay on MOLT-4 leukemia, 29.4 µM. The GI50 is 21.5 µM in the assay on MDA-MB-231 breast, 20.7 µM in the assay on T-47D breast and 9.26 µM with HOP-92 NSCLC. In addition, the TGI was found to be 58.9 µM with OVCAR-4 ovarian; 33.5 µM in the assay on LOX IMVI melanoma; 42.3 µM with RPMI-8226 leukemia; 37.6 µM in the assay with A498 renal; 88.8 µM in the assay with A549 NSCLC; 44.1 µM in the assay on ACHN renal. For the same compound, the TGI in the assay on MOLT-4 leukemia worked out at 73.8 µM; with MDA-MB-231 breast, 57.9 µM; in the assay on T-47D breast it was 90.6 µM; with HOP-92 NSCLC, 26.2 µM.
For the compound `COc1cc(Nc2ncccc2C(=O)NCc2cn(Cc3cccc(Oc4ccccc4)c3)nn2)cc(OC)c1`, the GI50 with OVCAR-4 ovarian is 5.42 µM; in the assay with LOX IMVI melanoma, 5.1 µM; with RPMI-8226 leukemia it was 5.25 µM; with A498 renal, 4.18 µM; in the assay on A549 NSCLC, 4.02 µM; in the assay on ACHN renal, 6.9 µM. Besides, the GI50 in the assay with MOLT-4 leukemia was 4.86 µM; with MDA-MB-231 breast, 5.33 µM; in the assay on T-47D breast it was 4.58 µM; with HOP-92 NSCLC, 46.7 µM. Further, the TGI in the assay with OVCAR-4 ovarian, in the assay on LOX IMVI melanoma, in the assay on RPMI-8226 leukemia, in the assay on A498 renal, in the assay on A549 NSCLC and in the assay on ACHN renal was greater than 100 µM throughout. The TGI in the assay with MOLT-4 leukemia, in the assay with MDA-MB-231 breast, with T-47D breast and in the assay with HOP-92 NSCLC was greater than 100 µM each time.
With `COC(=O)c1ccc2c(c1)nc(NC(=O)c1ccccc1)n2CCCc1ccccc1`, the GI50 in the assay with OVCAR-4 ovarian was 2.93 µM; in the assay on LOX IMVI melanoma, 2.63 µM; in the assay on RPMI-8226 leukemia it was 5.31 µM; in the assay on A498 renal, 16 µM; in the assay with A549 NSCLC it was 3.6 µM; in the assay on ACHN renal, 3.75 µM. Moreover, the GI50 was 2.78 µM with MOLT-4 leukemia, 6.26 µM in the assay with MDA-MB-231 breast, 4.35 µM with T-47D breast and 6 µM in the assay on HOP-92 NSCLC. In addition, the TGI in the assay on OVCAR-4 ovarian, in the assay with LOX IMVI melanoma, in the assay with RPMI-8226 leukemia, in the assay on A498 renal, with A549 NSCLC and with ACHN renal was greater than 100 µM each time. In addition, the TGI with MOLT-4 leukemia, in the assay with MDA-MB-231 breast, in the assay with T-47D breast and in the assay with HOP-92 NSCLC was greater than 100 µM throughout.
`CC/C=C\C[C@H](O)C/C=C1/C(=O)C(Cl)=C[C@@H]1C/C=C\CCCC(=O)OC`: the GI50 in the assay with OVCAR-4 ovarian is 0.723 µM; in the assay on LOX IMVI melanoma, 0.258 µM; in the assay with RPMI-8226 leukemia it was 0.21 µM; with A498 renal, 3.65 µM; in the assay on A549 NSCLC it was 2.64 µM; with ACHN renal, 0.378 µM. The GI50 in the assay with MOLT-4 leukemia is 0.472 µM; in the assay with MDA-MB-231 breast, 0.71 µM; in the assay on T-47D breast it was 0.985 µM; in the assay with HOP-92 NSCLC, 2.57 µM. Also, the TGI with OVCAR-4 ovarian is 3.21 µM; in the assay with LOX IMVI melanoma it was 0.52 µM; with RPMI-8226 leukemia, 0.88 µM; in the assay with A498 renal, 10.2 µM; in the assay on A549 NSCLC, 7.52 µM; in the assay on ACHN renal, 0.849 µM. Besides, the TGI was determined as 1.95 µM in the assay with MOLT-4 leukemia, 2.9 µM with MDA-MB-231 breast, 4.37 µM with T-47D breast and 5.46 µM with HOP-92 NSCLC.
Regarding `COc1cc(OCc2cccc(-c3ccc(C(O)c4nccs4)cc3)c2C)cc(OC)c1C=O` (centres undefined), the GI50 was 0.597 µM in the assay with OVCAR-4 ovarian; 1.79 µM in the assay on LOX IMVI melanoma; 1.34 µM in the assay on RPMI-8226 leukemia; 0.103 µM in the assay on A498 renal; 2.32 µM in the assay on A549 NSCLC; 1.72 µM with ACHN renal. Further, the GI50 in the assay on MOLT-4 leukemia was 1.9 µM; in the assay on MDA-MB-231 breast it was 2.2 µM; with T-47D breast, 0.401 µM; in the assay on HOP-92 NSCLC, 2.19 µM. The TGI worked out at 6.35 µM in the assay with OVCAR-4 ovarian; 4.08 µM with LOX IMVI melanoma; 5.47 µM in the assay on RPMI-8226 leukemia; 0.238 µM with A498 renal; 11.6 µM with A549 NSCLC; 6.68 µM with ACHN renal. The TGI in the assay with MOLT-4 leukemia turned out to be 5.88 µM; with MDA-MB-231 breast, 7.32 µM; in the assay on T-47D breast it was 6.38 µM; in the assay with HOP-92 NSCLC, 8.52 µM.
As for `COC(=O)COc1ccccc1/C=C1\N=C(c2ccccc2)N(c2cc(C(F)(F)F)ccc2Cl)C1=O`, the GI50 with OVCAR-4 ovarian is 39.5 µM; in the assay on LOX IMVI melanoma it was 24.9 µM; with RPMI-8226 leukemia, 24.9 µM; in the assay on A498 renal, greater than 100 µM; with A549 NSCLC, 97.4 µM; in the assay on ACHN renal, 57 µM. The GI50 with MOLT-4 leukemia was 23 µM; in the assay on MDA-MB-231 breast, greater than 100 µM; in the assay with T-47D breast, 29.1 µM; in the assay on HOP-92 NSCLC, 33.2 µM. Further, the TGI in the assay on OVCAR-4 ovarian was greater than 100 µM; in the assay on LOX IMVI melanoma, 73.6 µM; in the assay with RPMI-8226 leukemia, 72.7 µM; with A498 renal, greater than 100 µM; in the assay on A549 NSCLC, greater than 100 µM; with ACHN renal it was greater than 100 µM. In addition, the TGI was 62.3 µM in the assay on MOLT-4 leukemia, greater than 100 µM with MDA-MB-231 breast, greater than 100 µM in the assay with T-47D breast and greater than 100 µM in the assay on HOP-92 NSCLC.
For `CCN(CC)CCC(CNc1ccnc2cc(Cl)ccc12)c1ccc(Cl)cc1` (centres undefined), the GI50 in the assay on OVCAR-4 ovarian is 0.764 µM; in the assay with LOX IMVI melanoma, 1.02 µM; in the assay on RPMI-8226 leukemia, 1.02 µM; in the assay on A498 renal it was 1.21 µM; with A549 NSCLC, 1.64 µM; in the assay with ACHN renal, 0.467 µM. The GI50 in the assay with MOLT-4 leukemia was 1.6 µM; in the assay on MDA-MB-231 breast, 1.28 µM; with T-47D breast it was 1.92 µM; with HOP-92 NSCLC, 0.995 µM. Also, the TGI with OVCAR-4 ovarian is 4.32 µM; with LOX IMVI melanoma, 2.38 µM; in the assay on RPMI-8226 leukemia it was 3.67 µM; with A498 renal, 2.76 µM; with A549 NSCLC, 3.96 µM; with ACHN renal it was 1.78 µM. Moreover, the TGI in the assay on MOLT-4 leukemia is 9.27 µM; with MDA-MB-231 breast, 3.21 µM; in the assay on T-47D breast it was 4.21 µM; with HOP-92 NSCLC it was 3.19 µM.
